From patent US8263044B2, “Stilbene like compounds as novel HDAC inhibitors” (Orchid Research Laboratories Limited, priority 2005, dated 2012)
pIC50: −log10 of the molar value.

Assays:
HCT 116 cells = assay: cells; conditions: Homo sapiens, HCT-116, 48 h; for GI50: read-out: HCT116 GI50; for CC50: read-out: HCT116 LC50
Protocol: (§1) Experimental drugs are screened for anti-cancer activity in three cell lines for their GI50, TGI and LC50 values (using five concentrations for each compound). The cell lines are maintained in DMEM containing 10% fetal bovine serum. 96 well micro titer plates are inoculated with cells in 100 μL for 24 h at 37° C., 5% CO2, 95% air and 100% relative humidity. 5000 HCT 116 cells/well, 5000 NCIH 460 cells/well and 5000 U251 cells/well are plated. A separate plate with these cell lines is also inoculated to determine cell viability before the addition of the compounds (T0) (See Table I).
(§2) Following 24-hour incubation, experimental drugs are added to the 96 well plates. Each plate contains one of the above cell lines and the following in triplicate: five different concentrations (0.01, 0.1, 1, 10 and 100 μM) of four different compounds, appropriate dilutions of a cytotoxic standard and control (untreated) wells. Compounds are dissolved in DMSO to make 20 mM stock solutions on the day of drug addition and frozen at −20° C. Serial dilutions of these 20 mM stock solutions are made in complete growth medium such that 100 μL of these drug solutions in medium, of final concentrations equaling 0.01, 0.1, 1, 10 and 100 μM can be added to the cells in triplicate. […] (See Table I).
(§3) For T0 measurement, 24 hours after seeding the cells, 10 μL of 3-(4,5-Dimethyl-2-thiazolyl)-2,5-diphenyl-2H-tetrazolium (MTT) solution per well is added and incubation carried out for 3 hours at 37° C., 5% CO2, 95% air and 100% relative humidity, protected from light. Cells incubated with compounds for 48 hours are treated similarly except with the addition of 20 μL MTT solution per well and a subsequent incubation under the same conditions. After 3 hours of MTT incubation, well contents are aspirated carefully followed by addition of 150 μL DMSO per well. Plates are agitated to ensure solution of the formazan crystals in DMSO and absorbance read at 570 nm. (See Table I).
(§4) Percent growth is calculated for each compound's concentration relative to the control and zero measurement wells (T0; viability right before compound addition).
(§5) If a test well's O.D. value is lower than the T0 measurement for that cell line, then, % Growth=(test−zero)/zero×100

MDAMB231/U251 [1] = assay: cells; conditions: 48 h, read-out: MDAMB231/U251 GI50
Protocol: as §1, §2, §3, §4, §5

NCIH 460 cells = assay: cells; conditions: Homo sapiens, NCI-H460, 48 h; for GI50: read-out: NCIH460 GI50; for CC50: read-out: NCIH460 LC50
Protocol: as §1, §2, §3, §4, §5

[2] = tested on: NCIH460, HCT116, MDAMB231/U251; assay: Anti-cancer screen, mean GI50 over the cell lines; assay type: cell-based; conditions: mean over the three cell lines; no unit in table
Protocol: as §1, §2, §3
Percent growth is calculated for each compound's concentration relative to the control and zero measurement wells (T0; viability right before compound addition). […]

[3] = tested on: HDAC activity (Mouse Liver Extract); assay: Histone Deacetylase (HDAC) Inhibition Assay using Boc-Lys (Ac)-AMC Substrate; assay type: biochemical; conditions: mouse liver enzyme; for HDAC Inhibition 1 μM: inhibitor at 1 μM; for HDAC Inhibition 1 μM / HDAC Inhibition 10 μM: in % (unit assumed); for HDAC Inhibition 10 μM: inhibitor at 10 μM
Protocol: Histone Deacetylase (HDAC) Inhibition Assay using Boc-Lys (Ac)-AMC Substrate: Inhibition of HDAC has been implicated to modulate transcription and to induce apoptosis or differentiation in cancer cells. The fluorometric assay provides a fast and fluorescence based method that eliminates radioactivity, extractions or chromatography, as used in traditional assays. The assay based on two steps. First, the HDAC fluorometric substrate, which comprises an acetylated lysine side chain, is incubated with a sample containing HDAC activity (Mouse Liver Extract). Deacetylation of the substrate sensitizes the substrate, in the second step; treatment with the Trypsin stop solution produces a fluorophore that can be easily analyzed using fluorescence plate reader.
Assay was done in 96 well black microplate and total volume of the assay is 100 ul. Mouse liver enzyme is diluted 1:6 with HDAC buffer. Enzyme cocktail made of 10 ul of diluted enzyme and 30 ul of HDAC buffer. 40 ul of enzyme cocktail dispensed into each well. 10 ul of different concentrations of inhibitor added in to each well, except enzyme control well. Preincubated the plate at 30° C. for 5 minutes. The HDAC reaction is started by adding 50 ul of HDAC substrate (Boc-Lys (Ac)-AMC Substrate) solution. Incubated the plate at 30° C. for 30 minutes. Adding 100 ul of Trypsin stop solution stops the reaction. The plate is incubated again at 30° C. for 20-30 minutes. The release of AMC is monitored by measuring the fluorescence at excitation wavelength of 365 or 360 nm and emission wavelength of 440 or 460 nm. Buffer and substrate alone kept for blank subtraction. (Dennis Wegener et al, Anal. Biochem, 321, 2003, 202-208).

MDAMB231/U251 [4] = assay: cells; conditions: 48 h, read-out: MDAMB231/U251 LC50

melting point [°C] | Structure (SMILES) | GI50 (HCT 116 cells) [µM] | CC50 (HCT 116 cells) [µM] | GI50 (MDAMB231/U251 [1]) [µM] | GI50 (NCIH 460 cells) [µM] | CC50 (NCIH 460 cells) [µM] | GI50 [2] [µM] | HDAC Inhibition 1 μM [3] | HDAC Inhibition 10 μM [3] | pIC50 [3] | CC50 (MDAMB231/U251 [4]) [µM]
163.8 to 164.3 | O=C(CCCCCNC(=O)/C(=C\c1ccc(F)c(Cl)c1)c1ccc(F)cc1)NO [Example 10, (2Z)-3-(3-Chloro,4-fluorophenyl)-2-(4-fluorophenyl)-N-[6-(hydroxyamino)-6-oxohexyl]acrylamide] |  |  |  |  |  |  |  |  |  | 
79.9 to 86.7 | COc1cc(/C=C(\C(=O)NCCCCCC(=O)NOCc2ccccc2)c2ccc(F)cc2)cc(OC)c1 [Example 33] |  |  |  |  |  |  |  |  |  | 
95.1 to 103.6 | O=C(CCCCCNC(=O)/C(=C\c1ccc(F)c(C(F)(F)F)c1)c1ccc(C(F)(F)F)cc1)NO [Example 22, (2Z)-3-(4-Fluoro-3-trifluoromethyl-phenyl)-2-(4-trifluoromethylphenyl)-N-[6-(hydroxyamino)-6-oxohexyl]acrylamide] |  |  |  |  |  |  |  |  |  | 
78.5 to 79 | Cc1ncsc1C=C(C(=O)NCCCCCC(=O)NO)c1ccc(Cl)cc1 (stereo in doubt) [Example 12, (2Z)-3-(4-Methyl-1,3-thiazol-5-yl)-2-(4-chlorophenyl)-N-[6-(hydroxyamino)-6-oxohexyl]acrylamide] |  |  |  |  |  |  |  |  |  | 
181 to 185.2 | O=C(CCCCCNC(=O)/C(=C\c1ccc(Cl)s1)c1ccc(F)cc1)NO [Example 44, (2Z)-3-(5-Chlorothiophen-2-yl)-2-(4-fluorophenyl)-N-[6-(hydroxyamino)-6-oxohexyl]acrylamide] |  |  |  |  |  |  |  |  |  | 
162.4 to 165.2 | COc1c(F)c(F)c(/C(=C/c2ccc(F)cc2)C(=O)NCCCCCC(=O)NC(Cc2ccc(O)cc2)C(=O)NO)c(F)c1F (stereo not shown) [Example 56] |  |  |  |  |  |  |  |  |  | 
142.1 to 145.4 | CSc1ccc(/C=C(\C(=O)NCCCCCC(=O)NC(Cc2ccc(O)cc2)C(=O)NO)c2ccc(F)cc2)cc1 (stereo not shown) [Example 54] |  |  |  |  |  |  |  |  |  | 
153 to 157 | COc1cc(/C=C(\C(=O)NCCCCCC(=O)NO)c2ccc(F)cc2)cc(OC)c1OC [Example 48, (2Z)-3-(3,4,5-Trimethoxyphenyl)-2-(4 fluorophenyl)-N-[6-(hydroxyamino)-6-oxohexyl]acrylamide] |  |  |  |  |  |  |  |  |  | 
 | O=C(CCCCCNC(=O)/C(=C\c1ccc(Br)s1)c1ccc(Br)cc1)NO [Example 13, (2Z)-3-(5-Bromo-2-thienyl)-2-(4-bromophenyl)-N-[6-(hydroxyamino)-6-oxohexyl]acrylamide] | 5 | 70 | 3 | 7 | 75 | 5 | 53.83 | 89.18 | 5.53 | 80
 | COc1cc(/C=C(\C(=O)NCCCCCC(=O)Nc2ccccc2O)c2ccc(F)cc2)cc(OC)c1 [Example 2] | 30 | 73 | 30 | 27 | 56 | 29 | 7.73 | 10.46 |  | > 100
 | CSc1ccc(/C=C(\C(=O)NCCCCCC(=O)Nc2nccs2)c2ccc(F)cc2)cc1 [Example 20, (2Z)-3-(4-Thiomethylphenyl)-2-(4-fluorophenyl)-N-[6-(2-thiazoleamine)-6-oxohexyl]acrylamide] | > 100 | > 100 | 3 | 1 | > 100 | 2 |  | 5.57 |  | > 100
100.3 to 103.9 | O=C(CCCCCNC(=O)/C(=C\c1ccc(F)c(Cl)c1)c1ccc(O)cc1)NO [Example 42, (2Z)-3-(3-Chloro-4-fluorophenyl)-2-(4-hydroxyphenyl)-N-[6-(hydroxyamino)-6-oxohexyl]acrylamide] |  |  |  |  |  |  |  |  |  | 
 | O=C(CCCCCNC(=O)/C(=C\c1ccncc1)c1ccc(F)cc1)NO [Example 14, (2Z)-3-(4-Pyridine)-2-(4-fluorophenyl)-N-[6-(hydroxyamino)-6-oxohexyl]acrylamide] | > 100 | > 100 | > 100 | > 100 | > 100 | > 100 | 21.1 | 35.4 |  | > 100
 | CSc1ccc(/C=C(\C(=O)NCCCCCC(=O)Nc2ncc([N+](=O)[O-])s2)c2ccc(F)cc2)cc1 [Example 17, (2Z)-3-(4-Thiomethylphenyl)-2-(4-fluorophenyl)-N-[6-(5-nitro-2-thiazoleamine)-6-oxohexyl]acrylamide] | 0.03 | > 100 | 0.71 | 0.25 | > 100 | 0.3 | 0.7 | 2.3 |  | > 100
135.8 to 139.4 | O=C(CCCCCNC(=O)/C(=C\c1ccc(F)c(F)c1)c1ccc(F)cc1)NO [Example 21] |  |  |  |  |  |  |  |  |  | 
 | Cc1ncsc1/C=C(/C(=O)NCCCCCC(=O)NO)c1cccs1 [Example 8, [(2Z)-3-(4-Methyl-1,3-thiazol-5-yl)-2-(2-thienyl))-N-[6-(hydroxyamino)-6-oxohexyl]acrylamide] | 8 | > 100 | 6 | 15 | > 100 | 9.7 | 77.63 | 99.67 | 6.26 | 96
144.1 to 144.6 | COc1cc(/C=C(\C(=O)NCCCCCC(=O)NO)c2ccc(O)cc2)cc(OC)c1 [Example 11, (2Z)-3-(3,5-dimethoxyphenyl)-2-(4-hydroxyphenyl)-N-[6-(hydroxyamino)-6-oxohexyl]acrylamide] |  |  |  |  |  |  |  |  |  | 
 | COc1cc(/C=C(\C(=O)NCCCCCC(=O)NO)c2ccc(F)cc2)ccc1O [Example 46, (2Z)-3-(4-Hydroxy-3-methoxyphenyl)-2-(4-fluorophenyl)-N-[6-(hydroxyamino)-6-oxohexyl]acrylamide] | 7 | > 100 | 3.5 | 5 | > 100 | 5 | 60.53 | 70.82 |  | > 100
 | COc1cc(/C=C(\C(=O)NCCCCCC(=O)Nc2ccccc2O)c2ccc(O)cc2)cc(OC)c1OC [Example 6] | 38 | 91 | 60 | 44 | 85 | 47 | 15.9 | 36.1 |  | > 100
 | COc1cc(/C=C(\C(=O)NCCCCCC(=O)NO)c2ccc([N+](=O)[O-])cc2)cc(OC)c1 [Example 9, (2Z)-3-(3,5-Dimethoxyphenyl)-2-(4-nitrophenyl)-N-[6-(hydroxyamino)-6-oxohexyl]acrylamide] | 20 | 95 | 28 | 45 | 100 | 31 | 65.5 | 98.28 | 6.15 | 90
